Read-outs that look alike come from different tables or passages of the source.
Key:
Assay type in all cases: in vivo, human
[1] = system: CTX1 (C-terminal telopeptide of collagen 1); experiment: Serum CTX1 (bone resorption biomarker), MAD; conditions: mean±SEM
Description: (§1) All biomarkers were analyzed using standard immunoassays by PRA.
Pharmacological glucocorticoids cause bone side effects including osteopenia and bone fragility. Bone turnover markers bridged to later bone morbidities include osteocalcin for bone formation, and CTX1 (C-terminal telopeptide of collagen 1) for bone absorption. These biomarkers predict phenotypes of osteopenia and used in clinical trials to monitor bone side effects of treatments. […] (Supplemental Fig. 2). In the vamorolone Phase 1 trial, serum osteocalcin levels were assayed prior to dosing (Day 1 predose), 8 h after initial dose (Day 1), pre-dose on day 14 of daily dosing, 8 h after the day 14 (last) dose, and during recovery days 15 and 17.

[2] = SAD food effect cohort (8 mg/kg with high fat/high calorie meal) pharmacokinetics
Description: In the SAD part of the study, 7 cohorts were to be enrolled. Eight subjects were assigned to each of Cohorts 1 to 5 and 7 and received a single oral dose of vamorolone (planned as 0.1 mg/kg, 0.3 mg/kg, 1.0 mg/kg, 3.0 mg/kg, 8.0 mg/kg, and 20.0 mg/kg, respectively) or placebo under fasted conditions. Six subjects were assigned to Cohort 6 and were administered a single oral dose of 8.0 mg/kg vamorolone within 30 min of beginning a high fat/high calorie meal.
Subjects in Cohorts 1 through 5 and 7 were randomized to receive vamorolone or placebo in a 3:1 ratio (6 subjects received vamorolone, and 2 subjects received placebo) sequentially. In Cohort 1, 3 sentinel subjects were administered vamorolone or placebo in a 2:1 ratio. Following a review of sentinel safety and tolerability data (including reported adverse events [AEs], clinical laboratory tests, vital signs, and electrocardiograms [ECGs]), the remaining 5 subjects were randomized to receive vamorolone or placebo in a 4:1 ratio and dosed no earlier than 48 h after sentinel dosing. In Cohorts 2 to 5, and 7, subjects were administered vamorolone or placebo in a 3:1 ratio. Once Cohort 5 was completed and safety data had been reviewed, subjects in Cohort 6 were administered a single oral dose of 8.0 mg/kg vamorolone within 30 min of beginning a standard high fat/high calorie meal.

[3] = system: blood glucose (insulin resistance biomarker); experiment: Blood glucose, SAD; conditions: mean±SEM
Description: as §1
Glucocorticoids were originally named as such due to their potent and acute effects on glucose metabolism, where liver and muscle pathways for insulin signaling are rapidly and profoundly affected, creating a state of insulin resistance. […] Fasting insulin and glucose levels were assessed in all dose groups in the vamorolone Phase 1 SAD and MAD.

[4] = human, plasma, single oral 8 mg/kg, fed, geometric mean (%CV)

C[C@@H]1C[C@H]2[C@@H]3CCC4=CC(=O)C=C[C@]4(C)C3=CC[C@]2(C)[C@@]1(O)C(=O)CO [vamorolone]
CTX1 ([1]; MAD 1.0 mg/kg, Day 1 (8 h after initial dose)): 0.22 ± 0.02 ng/mL
CTX1 ([1]; MAD 1.0 mg/kg, Day 1 (predose), baseline): 0.50 ± 0.11 ng/mL
CTX1 ([1]; MAD 1.0 mg/kg, Day 14 (8 h after last dose)): 0.22 ± 0.01 ng/mL
CTX1 ([1]; MAD 1.0 mg/kg, Day 14 (predose)): 0.58 ± 0.12 ng/mL
CTX1 ([1]; MAD 1.0 mg/kg, Day 15 recovery): 0.68 ± 0.16 ng/mL
CTX1 ([1]; MAD 1.0 mg/kg, Day 17 recovery): 0.55 ± 0.09 ng/mL
CTX1 ([1]; MAD 3.0 mg/kg, Day 1 (8 h after initial dose)): 0.18 ± 0.00 ng/mL
CTX1 ([1]; MAD 3.0 mg/kg, Day 1 (predose), baseline): 0.31 ± 0.05 ng/mL
CTX1 ([1]; MAD 3.0 mg/kg, Day 14 (8 h after last dose)): 0.18 ± 0.00 ng/mL
CTX1 ([1]; MAD 3.0 mg/kg, Day 14 (predose)): 0.48 ± 0.13 ng/mL
CTX1 ([1]; MAD 3.0 mg/kg, Day 15 recovery): 0.48 ± 0.10 ng/mL
CTX1 ([1]; MAD 3.0 mg/kg, Day 17 recovery): 0.46 ± 0.12 ng/mL
CTX1 ([1]; MAD 9.0 mg/kg, Day 1 (8 h after initial dose)): 0.19 ± 0.006 ng/mL
CTX1 ([1]; MAD 9.0 mg/kg, Day 1 (predose), baseline): 0.59 ± 0.11 ng/mL
CTX1 ([1]; MAD 9.0 mg/kg, Day 14 (8 h after last dose)): 0.23 ± 0.03 ng/mL
CTX1 ([1]; MAD 9.0 mg/kg, Day 14 (predose)): 0.73 ± 0.14 ng/mL
CTX1 ([1]; MAD 9.0 mg/kg, Day 15 recovery): 0.77 ± 0.13 ng/mL
CTX1 ([1]; MAD 9.0 mg/kg, Day 17 recovery): 0.60 ± 0.10 ng/mL
CTX1 ([1]; MAD 20.0 mg/kg, Day 1 (8 h after initial dose)): 0.22 ± 0.02 ng/mL
CTX1 ([1]; MAD 20.0 mg/kg, Day 1 (predose), baseline): 0.70 ± 0.14 ng/mL
CTX1 ([1]; MAD 20.0 mg/kg, Day 14 (8 h after last dose)): 0.29 ± 0.06 ng/mL
CTX1 ([1]; MAD 20.0 mg/kg, Day 14 (predose)): 0.88 ± 0.12 ng/mL
CTX1 ([1]; MAD 20.0 mg/kg, Day 15 recovery): 0.92 ± 0.14 ng/mL
CTX1 ([1]; MAD 20.0 mg/kg, Day 17 recovery): 0.76 ± 0.10 ng/mL
AUC(0-t) ratio of the geometric means ([2]; 8 mg/kg, fed vs fasted): 2.54
AUC(inf) ratio of the geometric means ([2]; 8 mg/kg, fed vs fasted): 2.82
Cmax ratio of the geometric means ([2]; 8 mg/kg, fed vs fasted): 2.53
increase in bioavailability with a 40 g fat meal ([2]; 8 mg/kg, fed vs fasted): 250%
increase in Cmax, AUC(0-t), and AUC(inf) under fed conditions ([2]; 8 mg/kg, high calorie/high fat meal (40 g fat) vs fasted): 2.5 fold
increase in Tmax under fed conditions ([2]; 8 mg/kg, high calorie/high fat meal vs fasted): ~ 2 fold
AUC(0-inf) [2, 4]: 10200 ng·h/mL
AUC(0-t) [2, 4]: 10100 ng·h/mL
Cmax [2, 4]: 1820 ng/mL
CL/F ([2]; human, plasma, single oral 8 mg/kg, fed, geometric mean (%CV), read-out: CL/F (converted)): 13.2 mL/min/kg
Vd/F ([2]; human, plasma, single oral 8 mg/kg, fed, geometric mean (%CV), read-out: Vz/F): 2.67 L/kg
half-life ([2]; human, plasma, single oral 8 mg/kg, fed, geometric mean (%CV), read-out: t½ (converted)): 2.35 h
k el ([2]; human, plasma, single oral 8 mg/kg, fed, geometric mean (%CV), read-out: λz (converted)): 8.19e-05 s⁻¹
Tmax ([2]; human, plasma, single oral 8 mg/kg, fed, median): 4 h
CL/F ([2]; single oral 8 mg/kg, fed, geometric mean (%CV)): 66.7 (28.4) (6) L/h
Blood glucose ([3]; SAD 0.1 mg/kg, 24 Hours Post Dose): 95 ± 4 mg/dL
Blood glucose ([3]; SAD 0.1 mg/kg, 48 Hours Post Dose): 95 ± 3 mg/dL
Blood glucose ([3]; SAD 0.1 mg/kg, 72 Hours Post Dose): 94 ± 4 mg/dL
Blood glucose ([3]; SAD 0.1 mg/kg, <2 hours predose, baseline): 95 ± 3 mg/dL
Blood glucose ([3]; SAD 0.1 mg/kg, Day -1, baseline): 99 ± 3 mg/dL
Blood glucose ([3]; SAD 0.1 mg/kg, Follow-up Visit): 98 ± 4 mg/dL
Blood glucose ([3]; SAD 0.1 mg/kg, Screening, baseline): 94 ± 4 mg/dL
Blood glucose ([3]; SAD 0.3 mg/kg, 24 Hours Post Dose): 91 ± 2 mg/dL
Blood glucose ([3]; SAD 0.3 mg/kg, 48 Hours Post Dose): 90 ± 2 mg/dL
Blood glucose ([3]; SAD 0.3 mg/kg, 72 Hours Post Dose): 91 ± 1 mg/dL
Blood glucose ([3]; SAD 0.3 mg/kg, <2 hours predose, baseline): 93 ± 2 mg/dL
Blood glucose ([3]; SAD 0.3 mg/kg, Day -1, baseline): 91 ± 2 mg/dL
Blood glucose ([3]; SAD 0.3 mg/kg, Follow-up Visit): 88 ± 4 mg/dL
Blood glucose ([3]; SAD 0.3 mg/kg, Screening, baseline): 93 ± 2 mg/dL
Blood glucose ([3]; SAD 1.0 mg/kg, 24 Hours Post Dose): 86 ± 3 mg/dL
Blood glucose ([3]; SAD 1.0 mg/kg, 48 Hours Post Dose): 88 ± 3 mg/dL
Blood glucose ([3]; SAD 1.0 mg/kg, 72 Hours Post Dose): 86 ± 3 mg/dL
Blood glucose ([3]; SAD 1.0 mg/kg, <2 hours predose, baseline): 93 ± 3 mg/dL
Blood glucose ([3]; SAD 1.0 mg/kg, Day -1, baseline): 92 ± 3 mg/dL
Blood glucose ([3]; SAD 1.0 mg/kg, Follow-up Visit): 93 ± 2 mg/dL
Blood glucose ([3]; SAD 1.0 mg/kg, Screening, baseline): 92 ± 3 mg/dL
Blood glucose ([3]; SAD 3.0 mg/kg, 24 Hours Post Dose): 93 ± 3 mg/dL
Blood glucose ([3]; SAD 3.0 mg/kg, 48 Hours Post Dose): 89 ± 4 mg/dL
Blood glucose ([3]; SAD 3.0 mg/kg, 72 Hours Post Dose): 88 ± 3 mg/dL
Blood glucose ([3]; SAD 3.0 mg/kg, <2 hours predose, baseline): 92 ± 4 mg/dL
Blood glucose ([3]; SAD 3.0 mg/kg, Day -1, baseline): 89 ± 3 mg/dL
Blood glucose ([3]; SAD 3.0 mg/kg, Follow-up Visit): 91 ± 5 mg/dL
Blood glucose ([3]; SAD 3.0 mg/kg, Screening, baseline): 96 ± 5 mg/dL
Blood glucose ([3]; SAD 8.0 mg/kg, 24 Hours Post Dose): 91 ± 4 mg/dL
Blood glucose ([3]; SAD 8.0 mg/kg, 48 Hours Post Dose): 87 ± 3 mg/dL
Blood glucose ([3]; SAD 8.0 mg/kg, 72 Hours Post Dose): 89 ± 4 mg/dL
Blood glucose ([3]; SAD 8.0 mg/kg, <2 hours predose, baseline): 86 ± 3 mg/dL
Blood glucose ([3]; SAD 8.0 mg/kg, Day -1, baseline): 90 ± 5 mg/dL
Blood glucose ([3]; SAD 8.0 mg/kg, Follow-up Visit): 94 ± 4 mg/dL
Blood glucose ([3]; SAD 8.0 mg/kg, Screening, baseline): 89 ± 4 mg/dL
Blood glucose ([3]; SAD 20.0 mg/kg, 24 Hours Post Dose): 91 ± 2 mg/dL
Blood glucose ([3]; SAD 20.0 mg/kg, 48 Hours Post Dose): 86 ± 2 mg/dL
Blood glucose ([3]; SAD 20.0 mg/kg, 72 Hours Post Dose): 88 ± 2 mg/dL
Blood glucose ([3]; SAD 20.0 mg/kg, <2 hours predose, baseline): 97 ± 4 mg/dL
Blood glucose ([3]; SAD 20.0 mg/kg, Day -1, baseline): 94 ± 3 mg/dL
Blood glucose ([3]; SAD 20.0 mg/kg, Follow-up Visit): 89 ± 3 mg/dL
Blood glucose ([3]; SAD 20.0 mg/kg, Screening, baseline): 93 ± 3 mg/dL
